In patent US7799809B2, “Carboxamide compounds and their use as calpain inhibitors” (Abbott GmbH & Co. KG, priority 2006, dated 2010):

Tests used:
cathepsin S = target: T1, cathepsin S (Homo sapiens, UniProt P25774); experiment: Cathepsin S enzyme inhibition in vitro (kinetic fluorescence assay); type: biochemical; conditions: recombinant human cathepsin S vs calpain I
T1 construct: purchased Calbiochem 219343; host or cells: E. coli
Method: (§1) The following solutions and buffers were employed: • HBS (for 40 ml): 800 μl M HEPES; 2.16 ml 100 mM KCl; 4.8 ml 1M NaCl; 3.59 ml 5% glucose; 60 μl μM MgSO4; 400 μl 100 mM Na pyruvate, 28.19 ml water; pH 7.2-7.5. • lysis buffer (for 20 ml): 400 μl M Tris pH 8.2; 2.74 ml 1M NaCl; 520 μl 0.5M EDTA; 2 ml 10% triton X-100; 0.8 ml (=1:25) CompletePlus (1 tablet/2 ml H2O); 200 μl 100 mM Pefabloc; 13.34 ml water, pH 8.2. • TBST (10×) (for 1 l): 100 mM Tris (12.1 g); 1.5M NaCl (87 g); 1% Tween 20 (10 g), adjusted to pH 8. I Enzyme Inhibition In Vitro: • Testing for blockade of the corresponding enzymic activities was carried out by means of kinetic fluorescence assays (excitation 390 nm, emission 460 nm). • Apparent Ki values were calculated from the experimentally determined IC50 values by the Cheng-Prussoff relation assuming a reversible competitive enzyme inhibition. The Km values of the substrates used under the assay conditions indicated above were: 90 μM (Z-Phe-Arg-AMC, cathepsin B), 10 μM (Z-Gly-Pro-Arg-AMC, cathepsin K), 2 μM (Z-Phe-Arg-AMC, cathepsin L), and 30 μM (Z-Val-Val-Arg-AMC, cathepsin S). • The indicated Ki values are averages of the inhibition constants calculated on the basis of 2 to 4 independent dose-effect plots.
(§2) The following assays were used: • 1. Calpain I: • 20 nM calpain-I—isolated from human erythrocytes (Calbiochem #208713), 100 μM Suc-Leu-Tyr-AMC (Bachem #1-1355) as substrate in buffer with 62 mM imidazole, 0.3 mM CaCl2, 0.10% CHAPS, 0.05% BSA, 1 mM DTT at pH 7.3 and room temperature. • 2. Cathepsin B: • 0.25 nM cathepsin B—isolated from human liver (Calbiochem #219362), 100 μM Z-Phe-Arg-AMC (Bachem #I-1160) as substrate 50 mM MES, 2 mM EDTA, 0.05% Brij 35, 2.5 mM L-cysteine, pH 6.0, room temperature. • 3. Cathepsin K: • 3 nM cathepsin K—activated from recombinant human procathepsin K from E. coli (Calbiochem #342001), 10 μM Z-Gly-Pro-Arg-AMC (Biomol #P-142) as substrate in 50 mM MES, 2 mM EDTA, 0.05% Brij 35, 2.5 mM L-cysteine, pH 6.0, room temperature. • 4. Cathepsin L: • 1 nM cathepsin L—isolated from human liver (Calbiochem #219402), 2 μM Z-Phe-Arg-AMC (Bachem #1-1160) as substrate in 50 mM MES, 2 mM EDTA, 0.05% Brij 35, 2.5 mM L-cysteine, pH 6.0, room temperature. • 5. Cathepsin S: • 0.5 nM recombinant human cathepsin S from E. coli (Calbiochem #219343), 20 μM Z-Val-Val-Arg-AMC (Bachem #1-1540) as substrate in 50 mM MES, 2 mM EDTA, 0.05% Brij 35, 2.5 mM L-cysteine, pH 6.0, room temperature. • The results of the in vitro determination are indicated in Table 1. The following abbreviations are used in Table 1: • The “Calpain activity” column, ++ stands for a calpain Ki (Ki(calpain)) of ≦40 nM and + means: 40 nM<Ki(Calpain)≦100 nM. • The “Sel. cat. B” column indicates the Ki(cathepsin B)/Ki(calpain) ratio. In this connection, ++ means a Ki(cathepsin B)/Ki(calpain) ratio of ≧30 and + means 10≦Ki(cathepsin B)/Ki(calpain)<30. • The “Sel. cat. K” column indicates the Ki(cathepsin K)/Ki(calpain) ratio. In this connection, ++ means a Ki(cathepsin K)/Ki(calpain) ratio of ≧30 and + means 10≦Ki(cathepsin K)/Ki(calpain)<30. • The “Sel. cat. L” column indicates the Ki(cathepsin L)/Ki(calpain) ratio. In this connection, ++ means a Ki(cathepsin L)/Ki(calpain) ratio of ≧50 and + means 30≦Ki(cathepsin L)/Ki(calpain)<50. • The “Sel. cat. S” column indicates the Ki(cathepsin S)/Ki(calpain) ratio. In this connection, ++ means a Ki(cathepsin S)/Ki(calpain) ratio of ≧100 and + means 50≦Ki(cathepsin S)/Ki(calpain)<100.

cathepsin L = target: T2, cathepsin L (Homo sapiens, UniProt P07711); experiment: Cathepsin L enzyme inhibition in vitro (kinetic fluorescence assay); type: biochemical; conditions: cathepsin L isolated from human liver vs calpain I
T2 construct: cathepsin L—isolated from human liver (Calbiochem #219402); purchased Calbiochem 219402; host or cells: human liver (tissue-derived)
Method: as §1, §2

T1 sequence (P25774 115-331): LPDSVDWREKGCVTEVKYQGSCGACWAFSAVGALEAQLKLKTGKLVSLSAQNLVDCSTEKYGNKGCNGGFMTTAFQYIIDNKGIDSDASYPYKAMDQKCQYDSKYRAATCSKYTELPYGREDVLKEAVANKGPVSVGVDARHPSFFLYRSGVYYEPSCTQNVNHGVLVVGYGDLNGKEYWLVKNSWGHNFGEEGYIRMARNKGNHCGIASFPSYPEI
T2 sequence (P07711 114-333): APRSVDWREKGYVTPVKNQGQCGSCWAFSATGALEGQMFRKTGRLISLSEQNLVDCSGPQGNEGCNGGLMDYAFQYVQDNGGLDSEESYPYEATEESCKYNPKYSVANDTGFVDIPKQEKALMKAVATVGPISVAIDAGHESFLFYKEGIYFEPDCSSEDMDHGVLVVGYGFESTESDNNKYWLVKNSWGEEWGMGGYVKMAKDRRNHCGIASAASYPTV

Row | SMILES | Sel cat. S: Ki(cathepsin S)/Ki(calpain) ratio (cathepsin S) | Sel cat. L: Ki(cathepsin L)/Ki(calpain) ratio (cathepsin L)
1 | NC(=O)C(=O)C(Cc1cccs1)NC(=O)c1cccnc1-n1ccc(-c2ccc(F)cc2)n1 (stereo not drawn) [Example 57, N-[3-Amino-2,3-dioxo-1-(2-thienylmethyl)propyl]-2-[3-(4-fluorophenyl)-1H-pyrazol-1-yl]nicotinamide] | ++ (++ means a Ki(cathepsin S)/Ki(calpain) ratio of ≧100) | ++ (++ means a Ki(cathepsin L)/Ki(calpain) ratio of ≧50)
2 | CCCCC(NC(=O)c1cccnc1-n1cnc(-c2ccc(N3CCOCC3)cc2)c1)C(=O)C(N)=O.Cl (stereo not drawn) [Example 15, N-{1-[Amino(oxo)acetyl]pentyl}-2-[4-(4-morpholin-4-ylphenyl)-1H-imidazol-1-yl]nicotinamide hydrochloride] | + (+ means 50≦Ki(cathepsin S)/Ki(calpain)<100) | ++ (++ means a Ki(cathepsin L)/Ki(calpain) ratio of ≧50)
3 | NC(=O)C(=O)C(Cc1ccccc1)NC(=O)c1cccnc1-n1cc(COc2ccccc2)c(-c2ccc(F)cc2)n1 (stereo not drawn) [Example 179, N-[3-Amino-2,3-dioxo-1-(phenylmethyl)propyl]-2-{3-(4-fluorophenyl)-4-[(phenyloxy)methyl]-1H-pyrazol-1-yl}pyridine-3-carboxamide] | ++ (++ means a Ki(cathepsin S)/Ki(calpain) ratio of ≧100) | + (+ means 30≦Ki(cathepsin L)/Ki(calpain)<50)
4 | Cl.NC(=O)C(=O)C(Cc1ccccc1)NC(=O)c1cccnc1-n1cnc(-c2ccc(C(F)(F)F)cc2)c1 (stereo not drawn) [Example 18, N-(3-Amino-1-benzyl-2,3-dioxopropyl)-2-{4-[4-(trifluoromethyl)phenyl]-1H-imidazol-1-yl}nicotinamide hydrochloride] | ++ (++ means a Ki(cathepsin S)/Ki(calpain) ratio of ≧100) | + (+ means 30≦Ki(cathepsin L)/Ki(calpain)<50)
5 | CCCCC(NC(=O)c1cccnc1-n1ccc(-c2ccc(OC)cc2)n1)C(=O)C(N)=O (stereo not drawn) [Example 49, N-{1-[Amino(oxo)acetyl]pentyl}-2-[3-(4-methoxyphenyl)-1H-pyrazol-1-yl]nicotinamide] | ++ (++ means a Ki(cathepsin S)/Ki(calpain) ratio of ≧100) | + (+ means 30≦Ki(cathepsin L)/Ki(calpain)<50)
6 | NC(=O)C(=O)C(Cc1ccccc1)NC(=O)c1ccccc1-n1ccc(-c2ccccc2)n1 (stereo not drawn) [Example 106, N-[3-Amino-2,3-dioxo-1-(phenylmethyl)propyl]-2-(3-phenyl-1H-pyrazol-1-yl)benzamide] | ++ (++ means a Ki(cathepsin S)/Ki(calpain) ratio of ≧100) | + (+ means 30≦Ki(cathepsin L)/Ki(calpain)<50)
7 | COc1ccc(-c2cn(-c3ncccc3C(=O)NC(Cc3ccccc3)C(=O)C(N)=O)cn2)cc1 (stereo not drawn) [Example 13, N-(3-Amino-1-benzyl-2,3-dioxopropyl)-2-[4-(4-methoxyphenyl)-1H-imidazol-1-yl]nicotinamide] | + (+ means 50≦Ki(cathepsin S)/Ki(calpain)<100) | ++ (++ means a Ki(cathepsin L)/Ki(calpain) ratio of ≧50)
8 | NC(=O)C(=O)C(Cc1ccccc1)NC(=O)c1cccnc1-n1cnc(-c2ccc(Cl)cc2)c1 (stereo not drawn) [Example 9, N-(3-Amino-1-benzyl-2,3-dioxopropyl)-2-[4-(4-chlorophenyl)-1H-imidazol-1-yl]nicotinamide] | ++ (++ means a Ki(cathepsin S)/Ki(calpain) ratio of ≧100) | + (+ means 30≦Ki(cathepsin L)/Ki(calpain)<50)
9 | CCCCC(NC(=O)c1cccnc1-n1ccc(-c2cccc(N3CCOCC3)c2)n1)C(=O)C(N)=O (stereo not drawn) [Example 59, N-{1-[Amino(oxo)acetyl]pentyl}-2-[3-(3-morpholin-4-ylphenyl)-1H-pyrazol-1-yl]nicotinamide] | + (+ means 50≦Ki(cathepsin S)/Ki(calpain)<100) | ++ (++ means a Ki(cathepsin L)/Ki(calpain) ratio of ≧50)
